Patent publication US10150804B2, “Compositions and methods for imaging cancer” (BRITISH COLUMBIA CANCER AGENCY BRANCH, priority 2014, dated 2018)
Read-outs that look alike come from different tables or passages of the source. Values belong to the molecule of their own block, whether it stands above or below them.

Experiments:
sstr1 = molecular target: T1, sstr1 (Homo sapiens, UniProt P30872); test: standard filtration competitive binding assay, sstr1 membranes; details: 0.2 nM 125I standard
T1 construct: purchased PerkinElmer; host or cells: Chinese hamster ovary K1 cells (transfected)
Method: After successful synthesis, the activity of ^19F-AMBF3-TATE was examined in vitro. Membranes from Chinese hamster ovary K1 cells transfected with sstr1, sstr2, sstr3, sstr5, and [^125I]-Tyr-somatostatin-14 were obtained from PerkinElmer. […] Briefly, membranes ([…]) were incubated with the ^125I-labelled standard at a concentration of 0.05 nM for sstr2 or 0.2 nM for other subtypes. […] After incubation (37° C., 1 h), the wells were aspirated and washed 8 times with 50 mM ice-cold buffer (Tris-HCl, pH 7.4) over grade GF/B filters. The filters were removed and counted by a γ counter (Cobra II; Packard). Data were fitted to a 1-site competition model (GraphPad Prism 6.1 software) to calculate Ki.

[1] = 19F-NMR kinetic analysis of solvolysis/defluoridation of AMBF3; type: physicochemical
Method: Data are scaled 1000,000 min.

[2] = test system: AR42J tumour-bearing mice; details: excess competitor 69/71Ga-DOTATATE
Method: After labelling, imaging was undertaken. […] Rat pancreatic adenocarcinoma cells (10^7 AR42J cells) were freshly expanded in a mixture of phosphate-buffered saline and Matrigel (Corning) and inoculated subcutaneously in female immunocompromised mice (NOD SCID [non-obese diabetic severe combined immunodeficient] IL2r-γ-null, bred in house). The tumours were grown for 2 wk until they reached 5-7 mm in diameter. […] Sixty minutes after injection, the mice were anesthetized with isoflurane and euthanized by carbon dioxide. The organs were harvested, rinsed with saline, blotted dry, and collected in previously weighed tubes. The tubes containing the organs were counted in a Cobra-II γ counter. The tissue weight and associated count per minute were used to calculate the percentage injected dose per gram of tissue (% ID/g). Images were acquired using a multimodality PET/CT system (Inveon; Siemens).

T1 sequence (P30872 whole entry): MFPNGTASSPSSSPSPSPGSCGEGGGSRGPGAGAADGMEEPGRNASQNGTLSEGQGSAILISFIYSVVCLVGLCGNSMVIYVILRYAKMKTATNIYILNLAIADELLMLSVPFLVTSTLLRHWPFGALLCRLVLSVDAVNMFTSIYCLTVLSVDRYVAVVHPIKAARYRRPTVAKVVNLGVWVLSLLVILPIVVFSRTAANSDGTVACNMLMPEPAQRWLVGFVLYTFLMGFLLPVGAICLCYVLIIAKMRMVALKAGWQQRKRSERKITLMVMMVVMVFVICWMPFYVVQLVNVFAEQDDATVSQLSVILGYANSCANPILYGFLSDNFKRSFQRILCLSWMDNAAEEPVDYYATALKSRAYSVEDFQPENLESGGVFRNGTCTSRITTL

Molecule: C[C@@H](O)[C@H](NC(=O)[C@@H]1CSSC[C@H](NC(=O)[C@@H](Cc2ccccc2)NC(=O)Cn2cc(C[N+](C)(C)C[B-](F)(F)F)nn2)C(=O)N[C@@H](Cc2ccc(O)cc2)C(=O)N[C@H](Cc2c[nH]c3ccccc23)C(=O)N[C@@H](CCCCN)C(=O)N[C@@H]([C@@H](C)O)C(=O)N1)C(=O)O [AMBF3-TATE]
displacement of binding to sstr1 (sstr1): No significant displacement

half-life ([1]; 19F NMR, read-out: solvolysis t1/2 (converted)): 312 h | half-life ([1]; 19F-NMR, first-order fit (FIG. 10), read-out: half-life of defluoridation): 0.325 h
Molecule: C#CC[N+](C)(C)C[B-](F)(F)F [alkynyl-AMBF3, N-propargyl-N,N-dimethyl-ammoniomethyltrifluoroborate]

Molecule: ^18F-AMBF3-TATE
blocking efficiency (tumour uptake) [2]: 97%
